Measurements published in the supplement of paper PMC11208160.
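Note: IS621 bridge recombinase in Escherichia coli cells against a fixed T5 target plasmid.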

Assay: recombinant UMI read abundance after kanamycin selection (control-corrected) (log10(CPM+1)); higher = more efficient recombination; extreme values may be limits of the assay; sequences stand for … in AGTGCAGAGAAAATCGGCCAGTTTTCTCTGCCTGCAGTCCGCATGCCGTGGGACCCCTTGGGTTCTAACCTGTTGCCTAGATTTATGCAGCGGACTGCCTTTCTCCCAAAGTGATAAACCGG…AGGTTGGTTTCACT; site = the 11-nt donor
Procedure, shortened: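 For the IS621 bridge recombinase, a pooled Escherichia coli screen tested donor and donor-binding-loop pairs. Cells received the pair library together with a target plasmid encoding a fixed target and T7-inducible recombinase, then went onto IPTG (0.07 mM) plus kanamycin or unselected plates in duplicate. After PCR across the donor–target junction and sequencing, recombinant UMI counts were normalized to CPM, averaged, and scaled by control-derived factors. Each value is given as log10(CPM+1).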
For “CAAGTAACATGGACCGGTTTTCCCGGTAATCCGTATTTGGG (site CAAGTGACTCC)”, the “recombinant UMI read abundance (log10)” value was 0.0247. In the case of “CGACGACCATGGACCGGTTTTCCCGGTAATCCGTATTTGGG (site CGACGACCTCC)”, the “recombinant UMI read abundance (log10)” value is reported as 0.0126. For “ACAGTATCATGGACCGGTTTTCCCGGTAATCCGTATTTGCA (site AGAGTACCTTG)”, the “recombinant UMI read abundance (log10)” value was 0. With “ACAGTCTCATGGACCGGTTTTCCCGGTAATCCGTATTTGCA (site ACAGTTTCTTG)” the “recombinant UMI read abundance (log10)” value was 0.155. In the case of “TGCTAGCCATGGACCGGTTTTCCCGGTAATCCGTATTTGGT (site TGCTAGTCTAC)”, the “recombinant UMI read abundance (log10)” value is reported as 0.00984. In the case of “AAGGACGCATGGACCGGTTTTCCCGGTAATCCGTATTTGGG (site AAGTACGCTCC)”, the “recombinant UMI read abundance (log10)” value is reported as 0.0226. With “TAGGTAGCATGGACCGGTTTTCCCGGTAATCCGTATTTGAA (site TAGTTAGCTTT)” the “recombinant UMI read abundance (log10)” value was 0.0108. For “ATAGTCGCATGGACCGGTTTTCCCGGTAATCCGTATTTGCG (site ATAGTCGCTCG)”, the “recombinant UMI read abundance (log10)” value was 1.37. In the case of “GGCTACTCATGGACCGGTTTTCCCGGTAATCCGTATTTGCT (site GGCTACTCTAG)”, the “recombinant UMI read abundance (log10)” value is reported as 2.43. With “GATTGGACATGGACCGGTTTTCCCGGTAATCCGTATTTGAC (site GATTTGACTGT)” the “recombinant UMI read abundance (log10)” value was 0. In the case of “AGAAAGGCATGGACCGGTTTTCCCGGTAATCCGTATTTGAT (site AGAAAGGCTAT)”, the “recombinant UMI read abundance (log10)” value is reported as 2.28. In the case of “GAGCTCACATGGACCGGTTTTCCCGGTAATCCGTATTTGAG (site GAGCTCACTTT)”, the “recombinant UMI read abundance (log10)” value is reported as 0.00749. For “CCTAGAACATGGACCGGTTTTCCCGGTAATCCGTATTTGAG (site ACTAGAACTCT)”, the “recombinant UMI read abundance (log10)” value was 0.00253. For “CCCATATCATGGACCGGTTTTCCCGGTAATCCGTATTTGTC (site ACCATATCTGA)”, the “recombinant UMI read abundance (log10)” value was 0. With “TAGGTATCATGGACCGGTTTTCCCGGTAATCCGTATTTGCG (site TAGGAATCTCG)” the “recombinant UMI read abundance (log10)” value was 1.02. With “TGTTCCGCATGGACCGGTTTTCCCGGTAATCCGTATTTGTA (site TGTTCCTCTTA)” the “recombinant UMI read abundance (log10)” value was 0. For “TGGCCGGCATGGACCGGTTTTCCCGGTAATCCGTATTTGCC (site TGGCCGGCTGT)”, the “recombinant UMI read abundance (log10)” value was 0.00896. In the case of “TCATGATCATGGACCGGTTTTCCCGGTAATCCGTATTTGGA (site TCATGATCTTC)”, the “recombinant UMI read abundance (log10)” value is reported as 1.32. In the case of “ACAGTATCATGGACCGGTTTTCCCGGTAATCCGTATTTGCA (site ACATTGTCTTG)”, the “recombinant UMI read abundance (log10)” value is reported as 1.03. For “ACCTAGACATGGACCGGTTTTCCCGGTAATCCGTATTTGGG (site ACGTAGACTCC)”, the “recombinant UMI read abundance (log10)” value was 0.0154. With “TTAGTATCATGGACCGGTTTTCCCGGTAATCCGTATTTGAC (site CTAGTATCTGT)” the “recombinant UMI read abundance (log10)” value was 2.18. For “TCCACTGCATGGACCGGTTTTCCCGGTAATCCGTATTTGCG (site TCCACCGCTCG)”, the “recombinant UMI read abundance (log10)” value was 0. For “GAGCTCACATGGACCGGTTTTCCCGGTAATCCGTATTTGAG (site GAGCTCACTGT)”, the “recombinant UMI read abundance (log10)” value was 0. For “TGTTGGACATGGACCGGTTTTCCCGGTAATCCGTATTTGTG (site TGTTGGACTCA)”, the “recombinant UMI read abundance (log10)” value was 0.117. In the case of “CAATGCACATGGACCGGTTTTCCCGGTAATCCGTATTTGAA (site CAATGCTCTTT)”, the “recombinant UMI read abundance (log10)” value is reported as 0.438. For “GCCAAGTCATGGACCGGTTTTCCCGGTAATCCGTATTTGGG (site GCCAAGTCTCC)”, the “recombinant UMI read abundance (log10)” value was 0.538. For “CAAGTCACATGGACCGGTTTTCCCGGTAATCCGTATTTGGG (site CGAGTCACTCC)”, the “recombinant UMI read abundance (log10)” value was 0.00994. In the case of “AGGACATCATGGACCGGTTTTCCCGGTAATCCGTATTTGCT (site AGGACATCTAG)”, the “recombinant UMI read abundance (log10)” value is reported as 1.48. In the case of “GCAGAATCATGGACCGGTTTTCCCGGTAATCCGTATTTGCA (site GCAGAATCTTG)”, the “recombinant UMI read abundance (log10)” value is reported as 2.13. With “GATTCGACATGGACCGGTTTTCCCGGTAATCCGTATTTGAC (site GATTCGACTGT)” the “recombinant UMI read abundance (log10)” value was 2.01. For “GATTGGACATGGACCGGTTTTCCCGGTAATCCGTATTTGAG (site GATTGGACTAT)”, the “recombinant UMI read abundance (log10)” value was 0.00853. With “GGCAATACATGGACCGGTTTTCCCGGTAATCCGTATTTGAA (site GGCAATCCTTT)” the “recombinant UMI read abundance (log10)” value was 0.00332. For “TGAGGTTCATGGACCGGTTTTCCCGGTAATCCGTATTTGAC (site TGAGGTTCTGT)”, the “recombinant UMI read abundance (log10)” value was 2.17. For “ACAGTATCATGGACCGGTTTTCCCGGTAATCCGTATTTGCA (site ATGGTATCTTG)”, the “recombinant UMI read abundance (log10)” value was 1.7. For “CCCGGTACATGGACCGGTTTTCCCGGTAATCCGTATTTGCA (site CCCGGTACTTG)”, the “recombinant UMI read abundance (log10)” value was 0.751. In the case of “AGAGTGTCATGGACCGGTTTTCCCGGTAATCCGTATTTGCA (site AGAGTGTCTTG)”, the “recombinant UMI read abundance (log10)” value is reported as 3.45. In the case of “AGAAAGGCATGGACCGGTTTTCCCGGTAATCCGTATTTGAT (site AGAAAGGCTAG)”, the “recombinant UMI read abundance (log10)” value is reported as 0. In the case of “AGAAAGACATGGACCGGTTTTCCCGGTAATCCGTATTTGCA (site AGTAAGACTTG)”, the “recombinant UMI read abundance (log10)” value is reported as 1.15. For “CGGGAGTCATGGACCGGTTTTCCCGGTAATCCGTATTTGAC (site CGGGAGTCTGA)”, the “recombinant UMI read abundance (log10)” value was 2.28. With “CCCATATCATGGACCGGTTTTCCCGGTAATCCGTATTTGTC (site CCCATGTCTGA)” the “recombinant UMI read abundance (log10)” value was 0. With “CTAGCATCATGGACCGGTTTTCCCGGTAATCCGTATTTGCC (site CTAGTATCTGT)” the “recombinant UMI read abundance (log10)” value was 0. In the case of “CTAGTTTCATGGACCGGTTTTCCCGGTAATCCGTATTTGCC (site CTAGTATCTGT)”, the “recombinant UMI read abundance (log10)” value is reported as 0. For “GGCGACCCATGGACCGGTTTTCCCGGTAATCCGTATTTGTT (site GGCGACCCTAA)”, the “recombinant UMI read abundance (log10)” value was 0.263. With “CGGAAACCATGGACCGGTTTTCCCGGTAATCCGTATTTGAT (site CGGCAACCTAT)” the “recombinant UMI read abundance (log10)” value was 0.00975. In the case of “GGAGTGGCATGGACCGGTTTTCCCGGTAATCCGTATTTGGA (site GGAGTGGCTAC)”, the “recombinant UMI read abundance (log10)” value is reported as 0.0116. With “ATCTGTACATGGACCGGTTTTCCCGGTAATCCGTATTTGAC (site ATCTCTACTGT)” the “recombinant UMI read abundance (log10)” value was 0. For “CGTTGATCATGGACCGGTTTTCCCGGTAATCCGTATTTGCT (site CGATCATCTAG)”, the “recombinant UMI read abundance (log10)” value was 0.00695. In the case of “ACACATCCATGGACCGGTTTTCCCGGTAATCCGTATTTGAT (site ACACATCCTTT)”, the “recombinant UMI read abundance (log10)” value is reported as 0.0785. With “TAGCGAGCATGGACCGGTTTTCCCGGTAATCCGTATTTGAA (site TAGCCAGCTTT)” the “recombinant UMI read abundance (log10)” value was 0.0145. With “CCCATATCATGGACCGGTTTTCCCGGTAATCCGTATTTGTC (site CCCATCTCTGA)” the “recombinant UMI read abundance (log10)” value was 0. For “GATACTGCATGGACCGGTTTTCCCGGTAATCCGTATTTGCC (site GCTACTGCTGG)”, the “recombinant UMI read abundance (log10)” value was 0.748. With “ATTAGTGCATGGACCGGTTTTCCCGGTAATCCGTATTTGGT (site ACTAGTGCTAC)” the “recombinant UMI read abundance (log10)” value was 0.675. For “GATAGCACATGGACCGGTTTTCCCGGTAATCCGTATTTGCG (site GATAGCACTCG)”, the “recombinant UMI read abundance (log10)” value was 0.578. For “GCTTGCCCATGGACCGGTTTTCCCGGTAATCCGTATTTGAT (site GCTTGCTCTAT)”, the “recombinant UMI read abundance (log10)” value was 0.571. In the case of “CGGGATTCATGGACCGGTTTTCCCGGTAATCCGTATTTGTT (site CGGAATCCTAA)”, the “recombinant UMI read abundance (log10)” value is reported as 0. With “AAGGTCACATGGACCGGTTTTCCCGGTAATCCGTATTTGGA (site AAGGTCACTTC)” the “recombinant UMI read abundance (log10)” value was 1.14. In the case of “GCTCCTGCATGGACCGGTTTTCCCGGTAATCCGTATTTGCC (site GCTCCTGCTGG)”, the “recombinant UMI read abundance (log10)” value is reported as 0.921.
